According to patent publication US20040191240A1, “Composition and method for nerve regeneration” (priority 2003, published 2004):
Where no end group is shown, it is not given here.

Tests used:
N1E-115 cells [1] = assay: Growth, cyclin D3 and pRb in N1E-115 cells; format: cell-based; details: for phosphorylation state of pRb / protein level of cyclin D3: Western blot; for growth of N1E-115 cells: after transfection
Method: (§1) NIH3T3 cells, N1E-115 cells and 293T cells were maintained in DMEM containing 10% fetal bovine serum. Lipofectamine 2000 (Invitrogen) was used for transfection. For the stress fiber formation assay, NIH3T3 cells were cultured in serum-free medium for 16 hours after transfection. Stress fiber formation was evoked by incubating the cells with 10% serum for 10 minutes. Hippocampal neurons were prepared from […], as previously described (Neumann, H. et al., Science. 269:549-552, 1995). Briefly, hippocampi were dissected and the meninges removed. The trimmed tissue was dissociated by trituration. The dissociated cells were plated on dishes pre-coated with poly-L-lysine (Sigma), and cultured in DMEM containing 10% fetal bovine serum for 24 hours. Then, the medium was replaced with DMEM with B27 supplement (Invitrogen), and the cells were transfected with GFP or GFP-ΔNLS-p21. Neuronal morphology was estimated at 24 hours after the transfection.

N1E-115 cells [2] = assay: Morphological analysis of N1E-115 cells; format: cell-based; details: for cell population with long neurites / neurite formation: transfection, 48 h, Y-27632 10 μM for 30 minutes
Method: N1E-115 cells were transfected with GFP, GFP-full-p21 or GFP-ΔNLS-p21, and cultured in serum-starved condition for 5 hours. Then, the medium was replaced with DMEM containing 10% fetal bovine serum. The cells were fixed at 48 hours after transfection. The morphology of the cells was categorized into 3 groups; neurite positive cells, round cells and the other cells. The cells with longer neurites than their soma were defined as neurite positive cells. The other cells had various features including microspikes, ruffles and a flattened appearance.

myc-Rho-kinase [3] = molecular target: T1, myc-Rho-kinase (Bos taurus, UniProt Q28021); assay: Rho-kinase kinase assay with lysates of transfected 293T cells; format: cell-based
Method: Cells were lysed with lysis buffer (50 mM Tris-HCl (pH 7.5), 150 mM NaCl, 10% glycerol, 1% Nonidet-P40 and protease inhibitor cocktail). The kinase assay was carried out using the lysates.

[4] = molecular target: T2, association of p75 with Rho GDI (Homo sapiens, UniProt P08138); assay: Co-precipitation of p75 with recombinant GST-Rho GDI or GST-RhoA; format: binding; details: for direct binding of recombinant protein to p75 precipitated from transfected 293T cells: RhoA in the GDP-bound, GTP-bound or nucleotide-depleted state
T2 construct: host or cells: 293T (p75)
T2 sequence (P08138 29-427): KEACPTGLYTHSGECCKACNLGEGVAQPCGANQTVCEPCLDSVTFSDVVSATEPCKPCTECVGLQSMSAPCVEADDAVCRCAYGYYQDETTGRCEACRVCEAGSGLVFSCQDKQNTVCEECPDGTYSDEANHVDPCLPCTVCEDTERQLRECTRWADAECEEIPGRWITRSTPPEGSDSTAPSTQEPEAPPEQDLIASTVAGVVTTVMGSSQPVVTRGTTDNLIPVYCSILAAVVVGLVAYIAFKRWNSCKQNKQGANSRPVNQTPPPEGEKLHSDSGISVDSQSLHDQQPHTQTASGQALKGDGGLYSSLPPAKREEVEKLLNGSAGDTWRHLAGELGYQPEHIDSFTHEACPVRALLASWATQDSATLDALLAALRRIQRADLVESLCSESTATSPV

[5] = molecular target: T3, recombinant human p75-Fc chimera (Homo sapiens, UniProt P08138); assay: Co-precipitation of recombinant p75 and gangliosides; format: binding; details: precipitation with protein A sepharose, Western blot
T3 construct: Recombinant p75 extracellular domain fused to Fc purified from Sf21 cells; purchased Genzyme-Techne; host or cells: Sf21
T3 sequence (P08138 29-250 limits assumed): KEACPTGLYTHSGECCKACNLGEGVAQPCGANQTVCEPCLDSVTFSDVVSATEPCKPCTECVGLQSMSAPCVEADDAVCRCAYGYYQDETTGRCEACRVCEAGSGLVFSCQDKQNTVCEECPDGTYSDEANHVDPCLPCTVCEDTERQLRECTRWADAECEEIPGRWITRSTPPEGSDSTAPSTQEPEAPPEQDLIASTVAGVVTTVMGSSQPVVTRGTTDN
Method: Recombinant human p75-Fc chimera (1 μg; Genzyme-Techne) and 1 μg of purified ganglioside GT1b (>98% purity, Seikagaku Co.) were incubated in 200 μl 0.025% Tween20/PBS for 2 h, and p75 was precipitated using proteinA sepharose (Amersham Pharmacia Biotech). The resultant precipitates were electrophoretically transferred to polyvinylidene difluoride membranes after SDS-PAGE with 7% gels and were immunoblotted with anti GT1b antibody (IgM, Seikagaku Co.) or anti p75 antibody.

p75 = molecular target: T4, p75 (Mus musculus, UniProt Q9Z0W1); assay: Co-precipitation of p75 with GST-Pep5; format: binding; details: lysates from post-natal cerebellum
T4 construct: was incubated with lysates prepared from post-natal cerebellum that abundantly express p75; from tissue; host or cells: post-natal cerebellum lysate
T4 sequence (Q9Z0W1 32-427): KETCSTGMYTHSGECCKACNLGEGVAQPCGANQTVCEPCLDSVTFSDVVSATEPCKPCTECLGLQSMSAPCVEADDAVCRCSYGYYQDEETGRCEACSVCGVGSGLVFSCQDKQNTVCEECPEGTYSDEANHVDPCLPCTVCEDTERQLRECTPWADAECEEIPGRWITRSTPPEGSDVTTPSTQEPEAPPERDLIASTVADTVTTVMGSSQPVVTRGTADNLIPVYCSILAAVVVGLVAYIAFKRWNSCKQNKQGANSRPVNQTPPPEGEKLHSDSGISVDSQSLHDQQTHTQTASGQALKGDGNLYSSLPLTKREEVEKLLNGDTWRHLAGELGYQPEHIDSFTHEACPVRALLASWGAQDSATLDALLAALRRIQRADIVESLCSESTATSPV

RhoA = assay: Affinity-precipitation of GTP-RhoA in cerebellar neurons; format: cell-based, mouse; details: MAG-Fc 25 μg/ml, Nogo peptide 4 μM
Method: 293 cells were transfected with pcDNA3 vectors containing wild type RhoA whose NH2-terminus is tagged with HA (Yamashita, T. et al., Neuron. 24:585-593, 1999) and/or full-length human p75 by lipofection using Lipofectamine 2000 (Gibco BRL). Cerebellar neurons from P9 mice were isolated as described previously (Cai et al, Neuron, 22:89-101, 1999). Cells were lysed in 50 mM Tris (pH 7.5), 1% Triton X-100, 0.5% sodium deoxycholate, 0.1% SDS, 500 mM NaCl, 10 mM MgCl2, with leupeptin and aprotinin, each at 10 μg/ml. Cell lysates were clarified by centrifugation at 13,000×g at 4° C. for 10 min, and the supernatants were incubated with the 20 μg of GST-Rho binding domain of Rhotekin beads (Upstate Biotech.) at 4° C. for 45 min. The beads were washed 4 times with washing buffer (50 mM Tris (pH 7.5) containing 1% Triton X-100, 150 mM NaCl, 10 mM MgCl2, 10 μg/ml each of leupeptin and aprotinin). Bound Rho proteins were detected by Western blotting using a monoclonal antibody against RhoA (Santa Cruz Biotechnology).
Amino-terminally FLAG-tagged human p75 or the deletion mutants of p75 ICD were cloned into pcDNA3.1 expression plasmid, and were transfected with 293T cells. […] Bound Rho proteins were detected by Western blotting using a monoclonal antibody against RhoA (Santa Cruz Biotechnology).

[6] = molecular target: T5, interaction of p75 with Rho GDI (Homo sapiens, UniProt P08138); assay: Co-immunoprecipitation of p75 with Rho GDI or RhoA in transfected N1E-115 cells; format: cell-based; details: N1E-115 cells transfected with FLAG-tagged p75; Nogo peptide 4 μM, MAG-Fc 25 μg/ml, NGF 100 ng/ml
T5 construct: expressed in transfected cells; host or cells: N1E-115
T5 sequence (P08138 29-427): T2 sequence (P08138 29-427)

cerebellar neurons = assay: Neurite outgrowth assay, post-natal cerebellar neurons; format: cell-based, mouse; details: cells transfected with myc-tagged Rho GDI
NIH3T3 cells = assay: Stress fiber formation assay; format: cell-based; details: serum-starved 16 hours, 10% serum 10 minutes
Method: as §1

myc-Rho-kinase [7] = molecular target: T1, myc-Rho-kinase; assay: Co-immunoprecipitation of p21 constructs and Rho-kinase in 293T cells; format: cell-based; details: 293T cells cotransfected
Method: 293T cells were transfected with myc-Rho-kinase in combination with GFP-full-p21 or GFP-ΔNLS-p21. At 48 hours after transfection, the cells were lysed with 1 ml of lysis buffer (50 mM Tris-HCl (pH 7.5), 150 mM NaCl, 10% glycerol, 0.5% Nonidet-P40 including protease inhibitor cocktail tablets (Roche). The cell lysates were centrifuged at 13,000×g for 20 minutes, and the supernatant was collected. Immunoprecipitations were performed for 2 hours at 4° C. using an anti-p21 mouse monoclonal antibody (Santa Cruz Biotechnology) and 0.75 ml of the supernatant. The immunocomplexes were collected with protein G-Sepharose (Amersham Pharmacia Biotech) slurry (50% v/v), washed 4 times with lysis buffer, and subjected to SDS-PAGE. They were transferred to the polyvinylidene difluoride membranes and probed with the anti-myc rabbit polyclonal antibody (Santa Cruz Biotechnology). Interaction of endogenous proteins in N1E-115 cells was assessed in the same way using anti Rho-kinase antibody.

hippocampal neurons = assay: Neurite outgrowth and branching of hippocampal neurons; format: cell-based; details: rat E18, 24 hours after transfection
Method: as §1
Cultures of the hippocampal neurons from rat E18 embryos were used. […] Twenty-four hours after transfection, the cells were fixed and immunolabeled with β-tubulin III. The total neurite length per neuron, the axonal length, defined as the length of the longest neurite per neuron, the number of primary processes originating from the neuronal somata, and the number of branch points per neuron were determined (Neumann, H. et al., J. Neurosci. 22:854-862, 2002).

T1 sequence (Q28021 whole entry): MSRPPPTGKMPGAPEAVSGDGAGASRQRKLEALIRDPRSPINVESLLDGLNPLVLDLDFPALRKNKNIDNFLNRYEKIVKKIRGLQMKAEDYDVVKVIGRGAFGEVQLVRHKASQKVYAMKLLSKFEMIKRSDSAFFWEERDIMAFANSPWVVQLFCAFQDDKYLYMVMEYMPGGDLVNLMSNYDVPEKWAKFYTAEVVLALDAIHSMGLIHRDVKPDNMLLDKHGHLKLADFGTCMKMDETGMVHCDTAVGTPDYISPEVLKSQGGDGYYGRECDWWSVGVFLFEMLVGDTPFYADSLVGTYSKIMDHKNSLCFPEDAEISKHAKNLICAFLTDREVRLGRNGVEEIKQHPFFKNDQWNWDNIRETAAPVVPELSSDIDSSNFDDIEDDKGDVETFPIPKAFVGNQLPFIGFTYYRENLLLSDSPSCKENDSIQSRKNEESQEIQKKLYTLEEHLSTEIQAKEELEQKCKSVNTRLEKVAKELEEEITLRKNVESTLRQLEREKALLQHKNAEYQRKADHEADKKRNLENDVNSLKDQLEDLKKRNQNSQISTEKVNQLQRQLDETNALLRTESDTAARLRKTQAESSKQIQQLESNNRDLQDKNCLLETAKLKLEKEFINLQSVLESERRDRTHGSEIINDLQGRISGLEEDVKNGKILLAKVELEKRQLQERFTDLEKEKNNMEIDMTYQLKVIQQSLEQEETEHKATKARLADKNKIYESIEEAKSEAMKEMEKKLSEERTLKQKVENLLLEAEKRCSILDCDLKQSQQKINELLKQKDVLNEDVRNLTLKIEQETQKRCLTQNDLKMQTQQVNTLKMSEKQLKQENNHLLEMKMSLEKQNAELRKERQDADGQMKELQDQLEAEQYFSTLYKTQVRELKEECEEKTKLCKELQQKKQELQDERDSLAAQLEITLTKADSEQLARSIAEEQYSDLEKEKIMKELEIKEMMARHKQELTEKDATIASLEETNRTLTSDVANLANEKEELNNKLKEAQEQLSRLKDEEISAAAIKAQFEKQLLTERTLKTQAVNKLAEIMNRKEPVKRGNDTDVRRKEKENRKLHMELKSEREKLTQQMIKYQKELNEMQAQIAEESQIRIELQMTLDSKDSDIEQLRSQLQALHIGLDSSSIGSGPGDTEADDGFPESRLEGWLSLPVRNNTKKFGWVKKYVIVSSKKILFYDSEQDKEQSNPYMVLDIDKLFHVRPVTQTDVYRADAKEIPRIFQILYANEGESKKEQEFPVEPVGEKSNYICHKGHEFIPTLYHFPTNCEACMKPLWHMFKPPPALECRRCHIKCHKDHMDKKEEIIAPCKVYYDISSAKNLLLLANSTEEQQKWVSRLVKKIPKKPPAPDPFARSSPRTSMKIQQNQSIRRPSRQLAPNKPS

Compound: C[S+](C)[O-] [DMSO, reference compound]
- phosphorylation state of pRb (N1E-115 cells [1]): hyperphosphorylated pRb became undetectable
- protein level of cyclin D3 (N1E-115 cells [1]): strongly increased

Compound: C[C@@H](N)[C@H]1CC[C@H](C(=O)Nc2ccncc2)CC1 [Y-27632, reference compound]
- cell population with long neurites / neurite formation (N1E-115 cells [2]): induced significant neurite formation
- inhibition at 10 µM (myc-Rho-kinase [3]; HEK-293T, Y-27632 10 μM for 30 minutes, read-out: (compared to the original) inhibition of Rho-kinase activity): 51.9%

Compound: CFFRGGFFNHNPRYC [Pep5]
- association of p75 with Rho GDI ([4]; 1 μM GST-Rho GDI, Pep5 at the indicated concentrations): inhibited the association of p75 with Rho GDI dose dependently

Compound: GD1a
- association of ganglioside with recombinant p75 extracellular domain fused to Fc [5]: did not see any interaction

Compound: GM1
- association of ganglioside with recombinant p75 extracellular domain fused to Fc [5]: no interaction

Compound: GST-Pep5: Glutathione S-transferase-fusion protein containing Pep5 (CFFRGGFFNHNPRYC; cysteine pairing not given here; also: GST fusion protein)
- co-precipitation of p75 with GST-Pep5 (p75): presence of a protein corresponding to p75

Compound: GT1b
- association of ganglioside with recombinant p75 extracellular domain fused to Fc [5]: binds to p75 in a manner that is SDS-resistant

Compound: NGF: Nerve growth factor [reference compound]
- RhoA activity in cerebellar granule neurons from wild type mice (P9) (RhoA): rapidly inhibits RhoA activity
- interaction of p75 with Rho GDI and RhoA [6]: abolished the interaction of p75 with Rho GDI as well as RhoA

Compound: Rho GDI: Rho GDP dissociation inhibitor; recombinant GST-Rho GDI or myc-tagged Rho GDI over-expressed in neurons
- inhibitory effects of MAG and the Nogo peptide on neurite outgrowth on over-expression of Rho GDI (cerebellar neurons): abolished these inhibitory effects
- direct binding of recombinant protein to p75 precipitated from transfected 293T cells [4]: bound to p75

Compound: RhoA: bacterially produced RhoA (GST-RhoA)
- direct binding of recombinant protein to p75 precipitated from transfected 293T cells [4]: no interaction between them in any nucleotide state

Compound: full-p21: GFP fused full length p21 (aa 1-164) expressed from pEGFP-full-p21
- protein level of cyclin D3 (N1E-115 cells [1]): strongly increased
- growth of N1E-115 cells (N1E-115 cells [1]): stopped proliferation
- cell rounding (N1E-115 cells [2]; 48 hours after transfection): decreased cell rounding
- cell population with long neurites / neurite formation (N1E-115 cells [2]): no increase in the cell population that had long neurites
- formation of actin stress fibers after the addition of serum (NIH3T3 cells): Extensive actin stress fibers were observed
- co-immunoprecipitation of myc-tagged Rho-kinase with anti-p21 antibody (myc-Rho-kinase [7]): only a faint signal could be detected
- Rho-kinase activity in transfected cells (myc-Rho-kinase [3]): had no significant effect

Compound: ΔNLS-p21: GFP fused p21 with loss of nuclear localization signal (aa 1-140) expressed from pEGFP-ΔNLS-p21
- phosphorylation state of pRb (N1E-115 cells [1]): hyperphosphorylated pRb remained predominant
- protein level of cyclin D3 (N1E-115 cells [1]): no change in the expression
- growth of N1E-115 cells (N1E-115 cells [1]): proliferated until 48 hours after transfection
- cells that extended long neurites (N1E-115 cells [2]; 48 hours after transfection): more than 45%
- increase of cells with long neurites compared to the control (N1E-115 cells [2]; 48 hours after transfection): 3.1 -fold
- formation of actin stress fibers after the addition of serum (NIH3T3 cells): had little stress fiber formation
- co-immunoprecipitation of myc-tagged Rho-kinase with anti-p21 antibody (myc-Rho-kinase [7]): efficiently precipitated myc-tagged Rho-kinase
- number of primary processes (hippocampal neurons): no change
- number of branch points per neuron (hippocampal neurons; control 1.3): 2.6 (±0.3 SEM)
- axonal length (longest neurite per neuron) (hippocampal neurons; control 66.3): 162.9 μm
- total neurite length per neuron (hippocampal neurons; control 135.9): 307.2 μm
